# Source: US9249129B2, “Morpholino substituted urea derivatives as mTOR inhibitors” (CELLZOME LIMITED, priority 2010, dated 2016)
# How the values were obtained:
# Assay in all cases: kinobeads assay with mass spectrometry detection of kinases (kinase selectivity profile)
# Type in all cases: binding
# [1] = biological target: T1, kinases (kinome) (Homo sapiens, UniProt O00329); conditions: PIK3Cd (Lipid Kinase), IPI00384817
# T1 construct: determined in kinobeads assays with mass spectrometry detection of kinases as described previously; endogenous in cells; host or cells: cell lysate
# T1 sequence (O00329 1-1044): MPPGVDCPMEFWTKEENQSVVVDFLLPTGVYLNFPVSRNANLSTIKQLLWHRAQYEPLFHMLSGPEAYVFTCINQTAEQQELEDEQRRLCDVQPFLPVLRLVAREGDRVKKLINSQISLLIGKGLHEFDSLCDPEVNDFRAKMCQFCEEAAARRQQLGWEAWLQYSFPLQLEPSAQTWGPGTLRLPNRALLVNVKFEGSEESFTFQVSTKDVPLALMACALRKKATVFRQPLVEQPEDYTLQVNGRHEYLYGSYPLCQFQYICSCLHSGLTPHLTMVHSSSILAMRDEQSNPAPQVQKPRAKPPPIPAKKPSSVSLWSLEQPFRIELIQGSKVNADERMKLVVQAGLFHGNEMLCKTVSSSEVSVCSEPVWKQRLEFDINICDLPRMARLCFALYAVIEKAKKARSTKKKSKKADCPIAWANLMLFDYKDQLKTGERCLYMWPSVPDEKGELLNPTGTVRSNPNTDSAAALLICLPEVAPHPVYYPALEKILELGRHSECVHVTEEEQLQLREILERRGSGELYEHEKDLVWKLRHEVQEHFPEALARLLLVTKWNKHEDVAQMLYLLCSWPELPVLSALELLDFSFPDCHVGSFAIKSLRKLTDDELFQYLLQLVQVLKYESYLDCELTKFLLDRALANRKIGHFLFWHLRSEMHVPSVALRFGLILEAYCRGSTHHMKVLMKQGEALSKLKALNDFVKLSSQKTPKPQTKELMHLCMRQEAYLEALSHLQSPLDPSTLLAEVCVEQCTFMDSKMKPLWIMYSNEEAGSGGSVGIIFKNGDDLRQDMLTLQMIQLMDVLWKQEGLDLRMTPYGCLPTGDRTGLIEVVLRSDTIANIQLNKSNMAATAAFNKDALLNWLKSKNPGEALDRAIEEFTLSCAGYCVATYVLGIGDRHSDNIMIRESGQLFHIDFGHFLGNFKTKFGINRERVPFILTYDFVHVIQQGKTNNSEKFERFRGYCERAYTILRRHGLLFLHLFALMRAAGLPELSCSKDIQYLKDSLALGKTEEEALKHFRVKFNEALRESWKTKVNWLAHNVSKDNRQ
# Description: (§1) The protein kinase complement of the human genome (the kinome) was described previously (Manning et al., 2002. Science 298(5600):1912-1934). Sequence accession numbers are defined by the International Protein Index (IPI) (Kersey et al., 2004. Proteomics 4(7):1985-1988).
# [2] = biological target: T2, kinases (kinome) (Homo sapiens, UniProt P06239); conditions: LCK (TK), IPI00515097
# T2 construct: determined in kinobeads assays with mass spectrometry detection of kinases as described previously; endogenous in cells; host or cells: cell lysate
# T2 sequence (P06239 whole entry): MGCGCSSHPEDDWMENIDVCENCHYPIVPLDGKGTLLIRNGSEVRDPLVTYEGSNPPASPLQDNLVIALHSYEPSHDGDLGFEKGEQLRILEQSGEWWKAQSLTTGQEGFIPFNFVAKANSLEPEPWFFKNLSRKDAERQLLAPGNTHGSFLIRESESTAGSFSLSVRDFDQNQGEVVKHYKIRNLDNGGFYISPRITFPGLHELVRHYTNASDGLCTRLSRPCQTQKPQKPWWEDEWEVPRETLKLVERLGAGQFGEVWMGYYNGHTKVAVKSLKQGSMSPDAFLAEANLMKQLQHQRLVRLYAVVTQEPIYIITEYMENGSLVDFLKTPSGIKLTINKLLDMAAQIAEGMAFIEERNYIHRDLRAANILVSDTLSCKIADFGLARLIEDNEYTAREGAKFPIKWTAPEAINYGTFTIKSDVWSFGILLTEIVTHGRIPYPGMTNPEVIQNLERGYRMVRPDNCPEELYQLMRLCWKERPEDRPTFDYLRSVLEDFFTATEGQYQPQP
# Description: as §1
# [3] = biological target: T3, kinases (kinome) (Homo sapiens, UniProt P27361); conditions: Erk1 (CMGC), IPI00018195
# T3 construct: determined in kinobeads assays with mass spectrometry detection of kinases as described previously; endogenous in cells; host or cells: cell lysate
# T3 sequence (P27361 whole entry): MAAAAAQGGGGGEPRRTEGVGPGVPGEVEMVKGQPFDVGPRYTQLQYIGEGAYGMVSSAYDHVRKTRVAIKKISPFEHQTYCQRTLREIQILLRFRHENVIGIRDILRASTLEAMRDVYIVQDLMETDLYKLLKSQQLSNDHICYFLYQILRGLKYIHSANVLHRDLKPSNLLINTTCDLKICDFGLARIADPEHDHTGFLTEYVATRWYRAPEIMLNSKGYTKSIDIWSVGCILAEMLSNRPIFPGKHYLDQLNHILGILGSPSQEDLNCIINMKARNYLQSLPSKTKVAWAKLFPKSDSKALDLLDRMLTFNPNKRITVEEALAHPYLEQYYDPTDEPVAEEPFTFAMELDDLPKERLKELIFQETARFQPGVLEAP
# Description: as §1
# [4] = biological target: T4, kinases (kinome) (Homo sapiens, UniProt P36507); conditions: MAP2K2 (STE), IPI00003783
# T4 construct: determined in kinobeads assays with mass spectrometry detection of kinases as described previously; endogenous in cells; host or cells: cell lysate
# T4 sequence (P36507 whole entry): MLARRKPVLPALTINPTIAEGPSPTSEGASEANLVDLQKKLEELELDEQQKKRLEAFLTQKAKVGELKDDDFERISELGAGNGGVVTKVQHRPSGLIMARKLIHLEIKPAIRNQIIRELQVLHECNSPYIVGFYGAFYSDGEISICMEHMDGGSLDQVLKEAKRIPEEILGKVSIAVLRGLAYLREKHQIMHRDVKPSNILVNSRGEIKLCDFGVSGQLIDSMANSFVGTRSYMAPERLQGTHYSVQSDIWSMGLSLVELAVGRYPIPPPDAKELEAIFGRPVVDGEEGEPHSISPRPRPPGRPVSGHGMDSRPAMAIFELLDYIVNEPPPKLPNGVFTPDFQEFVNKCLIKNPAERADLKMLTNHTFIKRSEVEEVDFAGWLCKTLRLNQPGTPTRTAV
# Description: as §1
# [5] = biological target: T5, kinases (kinome) (Homo sapiens, UniProt Q08345); conditions: DDR1 (TK), IPI00657861
# T5 construct: determined in kinobeads assays with mass spectrometry detection of kinases as described previously; endogenous in cells; host or cells: cell lysate
# T5 sequence (Q08345 19-913): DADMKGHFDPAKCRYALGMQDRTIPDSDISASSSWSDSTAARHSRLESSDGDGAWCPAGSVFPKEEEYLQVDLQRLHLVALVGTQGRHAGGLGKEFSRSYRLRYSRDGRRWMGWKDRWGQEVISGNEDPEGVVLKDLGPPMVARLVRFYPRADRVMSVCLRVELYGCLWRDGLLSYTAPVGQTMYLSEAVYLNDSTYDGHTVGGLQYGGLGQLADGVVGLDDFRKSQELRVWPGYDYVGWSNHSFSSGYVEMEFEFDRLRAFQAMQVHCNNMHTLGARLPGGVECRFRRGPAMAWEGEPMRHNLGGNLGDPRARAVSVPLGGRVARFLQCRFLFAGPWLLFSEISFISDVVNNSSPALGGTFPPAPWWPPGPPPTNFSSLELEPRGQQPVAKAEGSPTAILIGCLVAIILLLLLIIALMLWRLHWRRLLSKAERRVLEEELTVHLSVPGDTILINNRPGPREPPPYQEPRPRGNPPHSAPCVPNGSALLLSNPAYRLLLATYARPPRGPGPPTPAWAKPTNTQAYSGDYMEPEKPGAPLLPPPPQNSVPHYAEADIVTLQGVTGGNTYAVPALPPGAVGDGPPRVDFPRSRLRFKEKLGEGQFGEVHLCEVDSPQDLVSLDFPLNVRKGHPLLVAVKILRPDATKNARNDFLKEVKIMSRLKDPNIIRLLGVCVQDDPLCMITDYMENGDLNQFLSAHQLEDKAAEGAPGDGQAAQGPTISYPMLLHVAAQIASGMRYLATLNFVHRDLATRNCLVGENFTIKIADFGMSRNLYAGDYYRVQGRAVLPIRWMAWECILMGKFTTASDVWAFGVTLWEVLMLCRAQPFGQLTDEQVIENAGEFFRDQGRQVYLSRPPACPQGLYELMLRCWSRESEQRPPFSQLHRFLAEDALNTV
# Description: as §1
# [6] = biological target: T6, kinases (kinome) (Homo sapiens, UniProt Q13557); conditions: CaMK2d (CAMK), IPI00828081
# T6 construct: determined in kinobeads assays with mass spectrometry detection of kinases as described previously; endogenous in cells; host or cells: cell lysate
# T6 sequence (Q13557 whole entry): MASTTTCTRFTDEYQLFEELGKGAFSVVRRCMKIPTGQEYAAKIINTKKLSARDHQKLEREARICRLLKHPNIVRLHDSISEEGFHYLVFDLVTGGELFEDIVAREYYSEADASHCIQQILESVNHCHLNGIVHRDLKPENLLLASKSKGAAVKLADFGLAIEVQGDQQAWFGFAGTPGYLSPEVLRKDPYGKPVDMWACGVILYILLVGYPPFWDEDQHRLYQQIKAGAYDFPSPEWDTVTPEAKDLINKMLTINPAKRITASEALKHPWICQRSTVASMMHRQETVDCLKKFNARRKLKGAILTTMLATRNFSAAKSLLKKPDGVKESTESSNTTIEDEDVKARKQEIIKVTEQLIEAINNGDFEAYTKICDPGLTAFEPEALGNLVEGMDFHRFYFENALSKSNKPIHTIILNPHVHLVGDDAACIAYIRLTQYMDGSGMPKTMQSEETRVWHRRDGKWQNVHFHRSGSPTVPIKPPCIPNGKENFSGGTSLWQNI
# Description: as §1
# [7] = biological target: T7, kinases (kinome) (Homo sapiens, UniProt Q96S53); conditions: TESK2 (TKL), IPI00102677
# T7 construct: determined in kinobeads assays with mass spectrometry detection of kinases as described previously; endogenous in cells; host or cells: cell lysate
# T7 sequence (Q96S53 whole entry): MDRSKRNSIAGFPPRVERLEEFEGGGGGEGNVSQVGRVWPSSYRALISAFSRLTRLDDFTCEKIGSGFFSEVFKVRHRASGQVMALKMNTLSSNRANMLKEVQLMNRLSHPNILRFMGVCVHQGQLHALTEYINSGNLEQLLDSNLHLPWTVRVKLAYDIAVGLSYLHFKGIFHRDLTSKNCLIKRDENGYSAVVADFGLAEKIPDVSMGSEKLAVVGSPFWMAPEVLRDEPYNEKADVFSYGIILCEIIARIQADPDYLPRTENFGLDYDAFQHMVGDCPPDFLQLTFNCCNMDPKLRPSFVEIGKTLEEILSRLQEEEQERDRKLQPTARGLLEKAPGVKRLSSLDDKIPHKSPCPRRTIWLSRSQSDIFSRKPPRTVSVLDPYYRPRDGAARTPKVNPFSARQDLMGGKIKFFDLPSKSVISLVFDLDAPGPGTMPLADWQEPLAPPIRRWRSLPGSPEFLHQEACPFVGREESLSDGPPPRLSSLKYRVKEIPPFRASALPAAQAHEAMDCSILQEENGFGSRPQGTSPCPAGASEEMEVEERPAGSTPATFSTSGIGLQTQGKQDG
# Description: as §1
# [8] = biological target: T8, kinases (kinome) (Homo sapiens, UniProt Q99640); conditions: MYT1 (Other), IPI00909627
# T8 construct: determined in kinobeads assays with mass spectrometry detection of kinases as described previously; endogenous in cells; host or cells: cell lysate
# T8 sequence (Q99640 1-499): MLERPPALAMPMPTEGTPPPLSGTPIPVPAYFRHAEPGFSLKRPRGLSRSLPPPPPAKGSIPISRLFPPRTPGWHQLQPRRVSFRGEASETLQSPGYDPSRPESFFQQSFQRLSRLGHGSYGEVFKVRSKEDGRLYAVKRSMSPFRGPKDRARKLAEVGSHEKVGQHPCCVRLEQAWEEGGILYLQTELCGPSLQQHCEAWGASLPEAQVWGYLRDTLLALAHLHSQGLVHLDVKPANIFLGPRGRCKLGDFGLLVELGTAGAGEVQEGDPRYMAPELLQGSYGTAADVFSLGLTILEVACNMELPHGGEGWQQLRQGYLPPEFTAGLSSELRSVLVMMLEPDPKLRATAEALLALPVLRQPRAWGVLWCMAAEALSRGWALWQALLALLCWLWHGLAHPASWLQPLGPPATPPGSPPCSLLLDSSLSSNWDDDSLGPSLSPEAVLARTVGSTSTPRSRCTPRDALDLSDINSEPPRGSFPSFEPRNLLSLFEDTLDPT
# Description: as §1
Compound,IC50 [1],IC50 [2],IC50 [3],IC50 [4],IC50 [5],IC50 [6],IC50 [7],IC50 [8]
"CCNC(=O)Nc1ccc(-c2cc(-c3ccccc3C#N)nc(N3CCOC[C@@H]3C)n2)cc1 [Example 8, (S)-1-(4-(6-(2-cyanophenyl)-2-(3-methylmorpholino)pyrimidin-4-yl)phenyl)-3-ethylurea]",> 10 µM,–,> 10 µM,–,–,> 10 µM,> 10 µM,> 10 µM
"C[C@H]1COCCN1c1nc(-c2ccc(NC(=O)NC3CC3)cc2)cc(-c2cccnc2S(C)(=O)=O)n1 [Example 46, (S)-1-cyclopropyl-3-(4-(2-(3-methylmorpholino)-6-(2-(methylsulfonyl)pyridin-3-yl)pyrimidin-4-yl)phenyl)urea]",> 10 µM,> 10 µM,> 10 µM,> 10 µM,> 10 µM,> 10 µM,> 10 µM,> 10 µM
"C[C@H]1COCCN1c1nc(-c2ccc(NC(=O)N[C@H]3CCC[C@@H]3O)cc2)cc(-c2cc(F)ccc2S(C)(=O)=O)n1 [Example 76, 1-(4-(6-(5-fluoro-2-(methylsulfonyl)phenyl)-2-((S)-3-methylmorpholino)pyrimidin-4-yl)phenyl)-3-((1S,2S)-2-hydroxycyclopentyl)urea]",> 10 µM,> 10 µM,> 10 µM,> 10 µM,> 10 µM,> 10 µM,> 10 µM,> 10 µM
"C[C@H]1COCCN1c1cc(-c2ccccn2)nc(-c2ccc(NC(=O)NCCO)cc2)n1 [Example 43, (S)-1-(2-hydroxyethyl)-3-(4-(4-(3-methylmorpholino)-6-(pyridin-2-yl)pyrimidin-2-yl)phenyl)urea]",> 10 µM,> 10 µM,> 10 µM,> 10 µM,> 10 µM,> 10 µM,> 10 µM,> 10 µM
"C[C@H]1COCCN1c1nc(-c2ccc(NC(=O)NC3CC3)cc2)cc(-c2ccccc2S(C)(=O)=O)n1 [Example 4, (S)-1-cyclopropyl-3-(4-(2-(3-methylmorpholino)-6-(2-(methylsulfonyl)phenyl)pyrimidin-4-yl)phenyl)urea]",> 10 µM,> 10 µM,> 10 µM,> 10 µM,> 10 µM,> 10 µM,> 10 µM,> 10 µM

# Next, values leading:
IC50 [1],IC50 [2],IC50 [3],IC50 [4],IC50 [5],IC50 [6],IC50 [7],IC50 [8],Compound
> 10 µM,> 10 µM,> 10 µM,> 10 µM,> 10 µM,> 10 µM,> 10 µM,> 10 µM,"C[C@H]1COCCN1c1nc(-c2ccc(NC(=O)NC3CC3)cc2)cc(-c2cc(F)ccc2S(C)(=O)=O)n1 [Example 40, (S)-1-cyclopropyl-3-(4-(6-(5-fluoro-2-(methylsulfonyl)phenyl)-2-(3-methylmorpholino)pyrimidin-4-yl)phenyl)urea]"
> 10 µM,> 10 µM,> 10 µM,–,> 10 µM,> 10 µM,> 10 µM,> 10 µM,"C[C@H]1COCCN1c1cc(-c2ccccc2S(C)(=O)=O)nc(-c2ccc(NC(=O)NC3CC3)cc2)n1 [Example 6, (S)-1-cyclopropyl-3-(4-(4-(3-methylmorpholino)-6-(2-(methylsulfonyl)phenyl)pyrimidin-2-yl)phenyl)urea]"
